What was measured:
[1] = tested on: site 2 of the Na^+ channel; format: binding, rat
[2] = tested on: voltage-sensitive Na^+ channels; assay: Electrophysiological assay: patch-clamp recordings of voltage-sensitive Na^+ currents in acutely dissociated hippocampal neurons; format: cell-based, rat
Method: Electrophysiological Assay:
Cell preparation: Acute cultures of rat hippocampal neurons were prepared daily using a modification of procedures described previously (Kuo and Bean, Mol. Pharm. 46:716-725 (1994)). Briefly, hippocampi were isolated from 3-11 day old rat pup brains (Sprague-Dawley; Charles River) and were sectioned, by hand, into 0.5-1 mm thick transverse slices (Whittemore and Koerner, Eur. J. Pharm. 192:435-438 (1991)). Slices were incubated for at least 30 min at room temperature (20-24° C.) in an oxygenated medium (124 mM NaCl, 3.3 mM KCl, 2.4 mM MgSO4, 2.5 mM CaCl2, 1.2 mM KH2PO4, 26 mM NaHCO3, pH =7.4) continuously bubbled with 5% CO2/95% O2. […]
Patch-clamp recordings of voltage-sensitive Na^+ currents: Whole-cell voltage-clamp recordings were made using conventional patch-clamp technique (Hamill et al., Pfluegers Arch. 391:85-100 (1981)) with an Axopatch 200A amplifier (Axon Instruments, Foster City, Calif.). […] Currents were recorded at room temperature (22-25° C.), filtered at 5 kHz with 4-pole Bessel filter, digitized at 20-50-μs intervals, and stored using Digidata 1200 analog/digital interface with Pclamp6/Clampex software (Axon Instruments). […] The inhibitory potency of drugs was assessed by measuring reductions in the peak amplitude of Na^+ currents induced by increasing concentrations of compounds tested. […]

[3] = molecular target: T1, human skeletal muscle Na^+ channel subunit (Homo sapiens, UniProt P35499); assay: Na^+ current recordings in HEK-293 cells stably expressing human skeletal muscle Na^+ channel subunit; format: cell-based
T1 construct: expressed in transfected cells
Method: The relative in vitro potency of these compounds were determined by their ability to inhibit human skeletal muscle Na^+ channel subunit stable expressed in HEK-293 cells. The techniques employed for Na^+ current recordings and analysis with the use of this cell line were similar to that described in example 36. These studies employ depolarizing prepulses of varying duration to allow drugs to bind, a brief (5 ms) repolarizing step to reprime unbound channels, followed by the test pulse (5 ms) to measure what proportion of channels are inhibited. The reduction in peak currents is then plotted as a function of prepulse duration and the time constant (τ) measured by monoexponential fit. A plot of 1/τ as a function of antagonist concentration then allows the macroscopic binding rates of the antagonists to be calculated. The anticonvulsant activities of additional compounds of the present invention were determined as described in example 38.

T1 sequence (P35499 whole entry): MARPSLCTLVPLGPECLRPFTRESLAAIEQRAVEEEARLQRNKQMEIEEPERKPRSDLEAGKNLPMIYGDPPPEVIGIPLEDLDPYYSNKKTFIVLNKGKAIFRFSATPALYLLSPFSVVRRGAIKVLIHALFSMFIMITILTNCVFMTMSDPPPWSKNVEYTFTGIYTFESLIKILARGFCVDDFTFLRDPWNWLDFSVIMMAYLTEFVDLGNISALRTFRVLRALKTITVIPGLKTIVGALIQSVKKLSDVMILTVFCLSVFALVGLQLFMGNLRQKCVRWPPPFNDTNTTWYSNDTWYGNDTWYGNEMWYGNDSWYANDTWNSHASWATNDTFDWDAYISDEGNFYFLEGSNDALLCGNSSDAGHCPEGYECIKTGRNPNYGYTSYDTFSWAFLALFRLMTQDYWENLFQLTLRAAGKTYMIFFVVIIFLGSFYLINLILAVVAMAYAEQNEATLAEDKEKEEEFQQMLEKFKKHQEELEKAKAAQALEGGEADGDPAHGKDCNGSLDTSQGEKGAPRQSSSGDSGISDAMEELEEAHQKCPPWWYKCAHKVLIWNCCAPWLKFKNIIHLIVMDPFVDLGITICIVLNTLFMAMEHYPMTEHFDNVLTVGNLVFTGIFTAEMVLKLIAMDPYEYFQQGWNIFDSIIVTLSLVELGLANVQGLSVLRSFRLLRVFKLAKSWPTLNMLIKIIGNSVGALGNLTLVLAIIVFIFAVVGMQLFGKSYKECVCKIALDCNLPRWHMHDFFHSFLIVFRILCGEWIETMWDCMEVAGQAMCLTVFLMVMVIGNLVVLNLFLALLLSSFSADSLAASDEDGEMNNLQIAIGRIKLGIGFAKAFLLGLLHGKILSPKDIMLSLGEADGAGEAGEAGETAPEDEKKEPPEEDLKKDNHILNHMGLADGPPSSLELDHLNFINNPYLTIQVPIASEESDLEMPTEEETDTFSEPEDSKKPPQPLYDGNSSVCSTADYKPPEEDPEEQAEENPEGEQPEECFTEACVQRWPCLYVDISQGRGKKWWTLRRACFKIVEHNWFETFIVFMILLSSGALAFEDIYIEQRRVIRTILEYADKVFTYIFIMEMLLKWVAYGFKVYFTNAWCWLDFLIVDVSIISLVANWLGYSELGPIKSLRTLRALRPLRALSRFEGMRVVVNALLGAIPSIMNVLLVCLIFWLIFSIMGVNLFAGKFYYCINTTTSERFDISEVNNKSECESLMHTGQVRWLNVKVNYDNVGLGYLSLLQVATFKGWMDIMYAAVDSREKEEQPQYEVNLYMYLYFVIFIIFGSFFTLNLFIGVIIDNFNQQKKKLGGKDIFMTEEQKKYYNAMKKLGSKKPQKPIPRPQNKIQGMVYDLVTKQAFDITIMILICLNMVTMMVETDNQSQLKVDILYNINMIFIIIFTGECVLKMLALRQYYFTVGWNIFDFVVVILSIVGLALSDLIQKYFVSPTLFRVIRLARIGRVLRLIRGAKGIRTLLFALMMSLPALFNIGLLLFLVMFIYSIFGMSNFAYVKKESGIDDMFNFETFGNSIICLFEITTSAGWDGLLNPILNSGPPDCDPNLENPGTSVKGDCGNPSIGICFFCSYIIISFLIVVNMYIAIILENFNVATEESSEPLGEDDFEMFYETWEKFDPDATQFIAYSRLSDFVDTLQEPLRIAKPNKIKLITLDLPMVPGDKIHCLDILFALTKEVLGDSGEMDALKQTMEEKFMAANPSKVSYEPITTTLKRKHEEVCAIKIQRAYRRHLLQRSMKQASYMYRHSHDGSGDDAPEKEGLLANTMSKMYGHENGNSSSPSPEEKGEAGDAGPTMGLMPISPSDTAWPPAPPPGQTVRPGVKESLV

Row | SMILES | melting point [°C] | further results
1 | NC1=N[C@H](O)[C@H]2[C@H]3O[C@]4(O)O[C@@H]([C@@H](O)[C@@]2(N1)[C@@H]4O)[C@]3(O)CO [Tetrodotoxin] | – | IC50 [1]: > 100 µM
2 | CCCCCC(CC)Oc1ccc(C=NNC(N)=O)cc1 (stereo not shown) [Example 32b, 4-(3-Octoxy)benzaldehyde semicarbazone] | 45 | –
3 | NC(=O)NN=Cc1ccc(Oc2ccc(C(F)(F)F)cc2)cc1 [Example 34c, 4-(4-Trifluoromethylphenoxy)benzaldehyde semicarbazone] | 119 to 122 | –
4 | NC(=O)NN=Cc1ccc(Oc2ccc(F)cc2)cc1 [4-(4-fluorophenoxy)benzaldehyde semicarbazone] | – | inhibition of voltage-gated Na^+ currents ([2]; acutely dissociated rat hippocampal neurons): dose-dependent inhibition
5 | CN(N=Cc1ccc(Oc2ccc(F)cc2)c(F)c1)C(N)=O [4-(4-Fluorophenoxy)-3-fluorobenzaldehyde 2′-methylsemicarbazone] | 169 to 172 | –
6 | NC(=O)NN=Cc1ccc(Oc2ccc(Cl)cc2F)cc1 [4-(2-Fluoro-4-chlorophenoxy)benzaldehyde semicarbazone] | 218 to 220 | HsmNa^+ Ki [3]: 0.06 µM
7 | NC(=O)NN=Cc1ccc(OC2CCOCC2)cc1 [Example 12, 4-(4-Tetrahydropyranoxy)benzaldehyde semicarbazone] | 208 to 209 | –
8 | NC(=O)NN=Cc1ccc(Oc2ccc([N+](=O)[O-])cc2)cc1 [Example 15, 4-(4-Nitrophenoxy)benzaldehyde semicarbazone] | 221 to 222 | –
9 | NC(=O)NN=Cc1ccc(Oc2ccc3c(c2)CCC3)cc1 [4-(5-indanoxy)benzaldehyde semicarbazone, 4-(5-Indanoxy)benzaldehyde semicarbazone] | – | HsmNa^+ Ki [3]: 0.04 µM
10 | NC(=O)NN=Cc1ccc(Cc2ccccc2)cc1 [Example 33b, 4-Benzylbenzaldehyde semicarbazone] | 118 to 120 | –
11 | NC(=O)NN=Cc1ccc(Oc2ccc(F)cc2)cc1 [4-(4-Fluorophenoxy) benzaldehyde semicarbazone] | – | effect on the overall shape of the Na^+ channel current-voltage relationship ([2]; measured at peak current): little effect
12 | NC(=O)NN=Cc1ccc(OCC2CCCCC2)cc1 [Example 10, 4-(Cyclohexylmethoxy)benzaldehyde semicarbazone] | 218 to 219 | –
